Data reported in article PMC4741889, “Ligand-based chemoinformatic discovery of a novel small molecule inhibitor targeting CDC25 dual specificity phosphatases and displaying in vitro efficacy against melanoma cells” (Oncotarget, 2015).

What was measured:
CDC25B = target: T1, CDC25B (Homo sapiens, UniProt P30305); assay: Ki from OMFP hydrolysis kinetics (Lineweaver-Burk), CDC25B; format: biochemical; conditions: 10 nM CDC25B, 1–25 μM OMFP; mean ± S.E.
T1 construct: Recombinant forms of the catalytic domains of CDC25A, -B and -C were obtained through the vectors pET28a-CDC25A-cd, pET28a-CDC25B-cd and pET28a-CDC25C-cd; made in house
T1 sequence (P30305 431-538 limits assumed): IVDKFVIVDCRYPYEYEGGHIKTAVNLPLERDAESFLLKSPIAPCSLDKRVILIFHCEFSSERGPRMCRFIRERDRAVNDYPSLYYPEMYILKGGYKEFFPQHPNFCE
Procedure: To measure the inhibition constant (Ki) of the recombinant forms of CDC25A, -B and -C towards the various inhibitors, the affinity of the different forms of CDC25 towards OMFP was measured either in the absence or in the presence of fixed concentrations of the various inhibitors. The reaction mixture contained 20 nM CDC25A, or 10 nM CDC25B, or 40 nM CDC25C, and different concentrations of the various inhibitors in 500 μL final volume of 20 mM Tris-HCl, pH 7.8, 1 mM DTT. DMSO was used as vehicle control. The reaction started by the addition of 1–25 μM OMFP, and the rate of OMFP hydrolysis was measured as indicated before. The corresponding Lineweaver-Burk plots allowed the calculation of the KM for OMFP and of the Vmax of OMFP hydrolysis, expressed as a.u./minmax. […] The Ki values were obtained from the decrease of a.u./minmax in the presence of the inhibitor, according to the equation a.u./mimmax’ = a.u./mimmax/{1 + ([I]/Ki)}, where a.u./mimmax’ represents the Vmax measured in the presence of the concentration [I] of the inhibitor. The Ki values were obtained from at least three independent experiments and reported as mean ± S.E.

A2058 cells = assay: Cell cycle analysis by PI flow cytometry, A2058 cells; format: cell-based, human; conditions: A2058, 100 μM
Procedure: As CDC25 phosphatases are key cell cycle regulators, the effect of 7 on cell cycle progression was investigated in detail. To this aim, asynchronously growing A2058 and SAN cells were treated at different times with 100 μM compound 7, and then cell cycle analysis was cytofluorimetrically monitored after propidium iodide (PI) incorporation. […] After 16-h incubation with […], cells were mainly and almost equally distributed in G0/G1 and G2/M phases (the ratio between them being 0.96), whereas the cellular population in the S phase was essentially undetectable. […] A similar general picture emerged from the effect of compound 7 on cell cycle progression of SAN cells (Supplementary Figure S3).
Cells were seeded into 6-well plates at 3 × 10^5 cells/well for 24 h at 37°C; after the addition of 100 μM 7 or 0.5% DMSO as a vehicle control, the incubation of treated cells continued for 16 or 24 h. After each treatment, cells were harvested with trypsin, centrifuged and the pellet was resuspended in phosphate-buffered saline (PBS). For cell cycle analysis, cells were fixed with 70% (v/v) cold ethanol and stored at −20°C for 1 h. […] After incubation at 4°C for 30 min, cells were analyzed with a FACScan flow cytometer (Becton Dickinson) for evaluating the distribution in cell cycle phases or the presence of nuclei with a DNA content lower than the diploid.

SAN cells = assay: Apoptosis, subdiploid DNA content by PI flow cytometry, SAN cells; format: cell-based, human
Excerpt: (§1) PI incorporation followed by flow cytometric analysis was used to detect the effect of 7 on the number of nuclei with a sub-diploid content, a typical hallmark of apoptosis. A time-dependent increase of apoptosis was evident in both A2058 and SAN cells and in particular, the effect of 7 on cell death program was already evident after 24-h treatment (Figure 7). […] To further investigate on the capacity of 7 to induce apoptosis, the enzymatic activity of caspase-3, the final effector of apoptotic program, was monitored.
[…] After each treatment, cells were harvested with trypsin, centrifuged and the pellet was resuspended in phosphate-buffered saline (PBS). For cell cycle analysis, cells were fixed with 70% (v/v) cold ethanol and stored at −20°C for 1 h. Then, cells were washed with cold PBS, centrifuged and the pellets were resuspended in 200 μL of a non-lysis solution containing 50 μg/mL PI. For the evaluation of apoptosis, cells were not fixed in ethanol and directly resuspended in 200 μL of a hypotonic lysis solution containing 50 μg/mL PI. After incubation at 4°C for 30 min, cells were analyzed with a FACScan flow cytometer (Becton Dickinson) for evaluating the distribution in cell cycle phases or the presence of nuclei with a DNA content lower than the diploid.

caspase-3 activity = assay: Caspase-3 enzymatic activity in SAN cells; format: cell-based, human; conditions: 100 μM
Excerpt: as §1
To estimate caspase-3 and caspase-9 activity during the treatment with compound 7, the respective enzymatic activities were measured by using caspase-3 and -9 fluorimetric assay kits, according to the manufacturer's protocol, essentially as previously described. Briefly, cells were seeded into 75 cm^2 plates (2 × 10^6 cells/plate) for 24 h at 37°C and then treated with 100 μM 7 or 0.5% DMSO. At the end of each incubation, cells were collected, washed with PBS, and finally lysed at 4°C in the cell lysis buffer. Cell lysates were incubated with 50 μM DEVD-AFC or LEHD-AFC substrates at 37°C for 2 h, to detect caspase-3 or caspase-9 activity, respectively, using a Cary Eclipse fluorescence spectrophotometer (Varian). Excitation and emission wavelengths were set at 400 nm and 505 nm, respectively; both excitation and emission slits were set at 10 nm.

Q: Which results are given for O=C(O)C1CCCCC1c1c2ccc(=O)cc-2oc2cc(O)ccc12 (stereo not shown) [Compound 7, 2-(6-hydroxy-3-oxo-3H-xanthen-9-yl)cyclohexanecarboxylic acid]?
A: Ki (CDC25B): 780 ± 30 nM; ratio between G0/G1 and G2/M (A2058 cells; 16 h, vehicle 0.96): 0.38; ratio between G0/G1 and G2/M (A2058 cells; 24 h, untreated 1.23): 0.45; level of apoptosis caused by 7 in the presence of Z-VAD-FMK (SAN cells; 100 μM 7 + 100 μM Z-VAD-FMK, 48 h): significantly decreased; apoptosis (nuclei with sub-diploid content) (SAN cells; 100 μM, 24-72 h): increase of apoptosis was significant even at 24-h treatment; apoptosis after NAC pre-treatment (SAN cells; NAC pre-treatment, 100 μM 7, 48 h): in a great part reverted; caspase-3 enzymatic activity (caspase-3 activity): significant increase of the enzymatic activity of caspase-3
